From the NIST ThermoML archive (doi:10.1021/je7003929)

Experiment: xn = mol fraction of the nth substance listed
Conditions: Liquid, Vibrating tube method

c1ccc2sccc2c1 [benzo[b]thiophene] + CCCCCC
Conditions | mass density [kg/m3]
322.95 K, 1028 kPa, x2 = 0.0629 | 1103.4
322.95 K, 2021 kPa, x2 = 0.0629 | 1104.1
322.95 K, 3029 kPa, x2 = 0.0629 | 1104.7
322.95 K, 4021 kPa, x2 = 0.0629 | 1105.4
322.95 K, 5037 kPa, x2 = 0.0629 | 1106.1
322.95 K, 6021 kPa, x2 = 0.0629 | 1106.7
322.95 K, 7021 kPa, x2 = 0.0629 | 1107.4
322.95 K, 8029 kPa, x2 = 0.0629 | 1108.1
322.95 K, 9018 kPa, x2 = 0.0629 | 1108.7
322.95 K, 10003 kPa, x2 = 0.0629 | 1109.3
322.95 K, 10998 kPa, x2 = 0.0629 | 1109.9
322.95 K, 12016 kPa, x2 = 0.0629 | 1110.6
322.95 K, 13012 kPa, x2 = 0.0629 | 1111.2
322.95 K, 14019 kPa, x2 = 0.0629 | 1111.8
322.95 K, 15018 kPa, x2 = 0.0629 | 1112.5
322.95 K, 16018 kPa, x2 = 0.0629 | 1113.1
322.95 K, 17024 kPa, x2 = 0.0629 | 1113.7
322.95 K, 18018 kPa, x2 = 0.0629 | 1114.4
322.95 K, 19024 kPa, x2 = 0.0629 | 1115
322.95 K, 20012 kPa, x2 = 0.0629 | 1115.6
323.02 K, 1017 kPa, x2 = 0.7491 | 752.7
323.02 K, 2013 kPa, x2 = 0.7491 | 753.8
323.02 K, 3014 kPa, x2 = 0.7491 | 754.9
323.02 K, 4012 kPa, x2 = 0.7491 | 756
323.02 K, 5008 kPa, x2 = 0.7491 | 757.1
323.02 K, 6010 kPa, x2 = 0.7491 | 758.1
323.02 K, 7025 kPa, x2 = 0.7491 | 759.2
323.02 K, 8028 kPa, x2 = 0.7491 | 760.2
323.02 K, 9009 kPa, x2 = 0.7491 | 761.2
323.02 K, 10010 kPa, x2 = 0.7491 | 762.2
323.02 K, 11002 kPa, x2 = 0.7491 | 763.2
323.02 K, 12017 kPa, x2 = 0.7491 | 764.1
323.02 K, 13019 kPa, x2 = 0.7491 | 765.1
323.02 K, 14006 kPa, x2 = 0.7491 | 766
323.02 K, 15015 kPa, x2 = 0.7491 | 767
323.02 K, 16022 kPa, x2 = 0.7491 | 767.9
323.02 K, 17019 kPa, x2 = 0.7491 | 768.8
323.02 K, 18016 kPa, x2 = 0.7491 | 769.8
323.02 K, 19024 kPa, x2 = 0.7491 | 770.6
323.02 K, 20021 kPa, x2 = 0.7491 | 771.5
323.09 K, 1017 kPa, x2 = 0.9432 | 659.3
323.09 K, 2024 kPa, x2 = 0.9432 | 660.6
323.09 K, 3024 kPa, x2 = 0.9432 | 661.9
323.09 K, 4016 kPa, x2 = 0.9432 | 663.1
323.09 K, 5024 kPa, x2 = 0.9432 | 664.2
323.09 K, 6021 kPa, x2 = 0.9432 | 665.5
323.09 K, 7018 kPa, x2 = 0.9432 | 666.6
323.09 K, 8020 kPa, x2 = 0.9432 | 667.8
323.09 K, 9019 kPa, x2 = 0.9432 | 668.9
323.09 K, 10010 kPa, x2 = 0.9432 | 670
323.09 K, 11012 kPa, x2 = 0.9432 | 671.1
323.09 K, 12013 kPa, x2 = 0.9432 | 672.2
323.09 K, 13021 kPa, x2 = 0.9432 | 673.3
323.09 K, 14023 kPa, x2 = 0.9432 | 674.3
323.09 K, 15015 kPa, x2 = 0.9432 | 675.3
323.09 K, 16001 kPa, x2 = 0.9432 | 676.3
323.09 K, 17028 kPa, x2 = 0.9432 | 677.3
323.09 K, 18003 kPa, x2 = 0.9432 | 678.3
323.09 K, 19001 kPa, x2 = 0.9432 | 679.3
323.09 K, 20017 kPa, x2 = 0.9432 | 680.3
332.66 K, 1020 kPa, x2 = 0.2588 | 991.1
332.66 K, 2021 kPa, x2 = 0.2588 | 991.9
332.66 K, 3022 kPa, x2 = 0.2588 | 992.7
332.66 K, 4018 kPa, x2 = 0.2588 | 993.5
332.66 K, 5021 kPa, x2 = 0.2588 | 994.3
332.66 K, 6012 kPa, x2 = 0.2588 | 995
332.66 K, 7018 kPa, x2 = 0.2588 | 995.8
332.66 K, 8005 kPa, x2 = 0.2588 | 996.6
332.66 K, 9012 kPa, x2 = 0.2588 | 997.3
332.66 K, 10011 kPa, x2 = 0.2588 | 998.2
332.66 K, 11013 kPa, x2 = 0.2588 | 998.9
332.66 K, 12006 kPa, x2 = 0.2588 | 999.7
332.66 K, 13011 kPa, x2 = 0.2588 | 1000.4
332.66 K, 14000 kPa, x2 = 0.2588 | 1001.2
332.66 K, 15025 kPa, x2 = 0.2588 | 1002
332.66 K, 16005 kPa, x2 = 0.2588 | 1002.6
332.66 K, 17000 kPa, x2 = 0.2588 | 1003.3
332.66 K, 18002 kPa, x2 = 0.2588 | 1004.1
332.66 K, 19009 kPa, x2 = 0.2588 | 1004.8
332.66 K, 20016 kPa, x2 = 0.2588 | 1005.5
332.77 K, 1019 kPa, x2 = 0.0629 | 1094.5
332.77 K, 2029 kPa, x2 = 0.0629 | 1095.3
332.77 K, 3030 kPa, x2 = 0.0629 | 1096
332.77 K, 4019 kPa, x2 = 0.0629 | 1096.7
332.77 K, 5026 kPa, x2 = 0.0629 | 1097.4
332.77 K, 6037 kPa, x2 = 0.0629 | 1098.1
332.77 K, 7035 kPa, x2 = 0.0629 | 1098.8
332.77 K, 8021 kPa, x2 = 0.0629 | 1099.5
332.77 K, 9012 kPa, x2 = 0.0629 | 1100.1
332.77 K, 10008 kPa, x2 = 0.0629 | 1100.8
332.77 K, 11026 kPa, x2 = 0.0629 | 1101.5
332.77 K, 12020 kPa, x2 = 0.0629 | 1102.2
332.77 K, 13012 kPa, x2 = 0.0629 | 1102.8
332.77 K, 14016 kPa, x2 = 0.0629 | 1103.4
332.77 K, 15015 kPa, x2 = 0.0629 | 1104.2
332.77 K, 16015 kPa, x2 = 0.0629 | 1104.7
332.77 K, 17020 kPa, x2 = 0.0629 | 1105.4
332.77 K, 18020 kPa, x2 = 0.0629 | 1106.1
332.77 K, 19022 kPa, x2 = 0.0629 | 1106.7
332.77 K, 20017 kPa, x2 = 0.0629 | 1107.3
332.82 K, 1026 kPa, x2 = 0.9432 | 650.1
332.82 K, 2016 kPa, x2 = 0.9432 | 651.4
332.82 K, 3016 kPa, x2 = 0.9432 | 652.8
332.82 K, 4023 kPa, x2 = 0.9432 | 654.1
332.82 K, 5004 kPa, x2 = 0.9432 | 655.4
332.82 K, 6016 kPa, x2 = 0.9432 | 656.7
332.82 K, 7012 kPa, x2 = 0.9432 | 658
332.82 K, 8018 kPa, x2 = 0.9432 | 659.2
332.82 K, 9014 kPa, x2 = 0.9432 | 660.5
332.82 K, 10014 kPa, x2 = 0.9432 | 661.6
332.82 K, 11009 kPa, x2 = 0.9432 | 662.8
332.82 K, 12005 kPa, x2 = 0.9432 | 664
332.82 K, 13020 kPa, x2 = 0.9432 | 665.1
332.82 K, 14007 kPa, x2 = 0.9432 | 666.3
332.82 K, 15005 kPa, x2 = 0.9432 | 667.3
332.82 K, 16012 kPa, x2 = 0.9432 | 668.4
332.82 K, 17015 kPa, x2 = 0.9432 | 669.5
332.82 K, 18010 kPa, x2 = 0.9432 | 670.6
332.82 K, 19000 kPa, x2 = 0.9432 | 671.6
332.82 K, 20001 kPa, x2 = 0.9432 | 672.6
332.86 K, 1031 kPa, x2 = 0.7491 | 743.7
332.86 K, 2024 kPa, x2 = 0.7491 | 744.9
332.86 K, 3019 kPa, x2 = 0.7491 | 746.1
332.86 K, 4001 kPa, x2 = 0.7491 | 747.2
332.86 K, 5002 kPa, x2 = 0.7491 | 748.4
332.86 K, 6020 kPa, x2 = 0.7491 | 749.5
332.86 K, 7005 kPa, x2 = 0.7491 | 750.6
332.86 K, 8013 kPa, x2 = 0.7491 | 751.7
332.86 K, 9004 kPa, x2 = 0.7491 | 752.8
332.86 K, 10000 kPa, x2 = 0.7491 | 753.8
332.86 K, 11019 kPa, x2 = 0.7491 | 754.9
332.86 K, 12006 kPa, x2 = 0.7491 | 755.9
332.86 K, 13014 kPa, x2 = 0.7491 | 757
332.86 K, 14008 kPa, x2 = 0.7491 | 757.9
332.86 K, 15007 kPa, x2 = 0.7491 | 758.9
332.86 K, 16009 kPa, x2 = 0.7491 | 759.9
332.86 K, 17002 kPa, x2 = 0.7491 | 760.9
332.86 K, 18026 kPa, x2 = 0.7491 | 761.8
332.86 K, 19007 kPa, x2 = 0.7491 | 762.8
332.86 K, 20017 kPa, x2 = 0.7491 | 763.7
